Source: PubChem BioAssay AID1117276 (Broad Institute, 2014)
Records with an inconclusive call do not appear. Calls of active or inactive are those of the source. The rule behind the calls is not given here.

System: orthopoxvirus-infected cells, imaging factory/early/late reporters
Test: orthopoxvirus gene expression and factory formation inhibitors, imaging, low MOI, factory DAPI readout, single point, dry powder (AID 1117276)
Details: at 10 µM; stronger effect = higher value

SMILES: C[C@@H](O)C#Cc1ccc2c(c1)O[C@@H](CN(C)Cc1ccc(-c3ccccc3)cc1)[C@@H](C)CN([C@@H](C)CO)S2(=O)=O
- activity score, factory formation (DAPI): 36 (inactive)
